Experimental findings from patent US20210379199A1, “COPPER NANOCLUSTERS, COMPOSITION COMPRISING THE SAME, AND TREATMENT OF NEURODEGENERATIVE DISEASES” (Shenzhen Profound-View Pharma Tech Co., Ltd, priority 2019, published 2021) are described below.

One series concerns SH-sy5y cells. Description: MPP+ induced PD cells (SH-sy5y) model, CCK-8 cell viability. As to conditions: 1 mM MPP+, ligand 20 ppm, 24 h.
The next series addresses T1, α-syn (Homo sapiens, UniProt P37840).
T1 construct: purchased Bachem Corp
Description: α-syn aggregation kinetics, ThT fluorescent labeling. The series is classed as biochemical. As to conditions: 35 μM α-syn, 5 ppm CuNCs or ligand alone, 37° C., 70 hours. How it is done:
CuNCs modified with different ligands were prepared according to literatures. Thioflavin T (abbreviation: ThT) is a highly sensitive fluorescent marker used to identify the presence of amyloid. […] When ThT encounters amyloid polypeptide or protein with a fiber structure, it will immediately adjacent to the amyloid polypeptides or proteins and its fluorescence intensity will increase exponentially. Therefore, ThT is widely used as a maker to monitor amyloidosis of peptides or proteins. This embodiment adopts ThT fluorescent labeling method to monitor the kinetics process of fibrosis aggregation of α-syn in the presence of CuNCs. The specific experiment method is as follows.
Pretreatment of α-syn monomers: Dissolve freeze-dried α-syn powder (Bachem Corp.) in HFIP to obtain a 1 g/L α-syn solution. […]
Sample preparation and detection: Add ligand modified CuNCs to α-syn PBS solution to reach final concentrations of 5 ppm and 35 μM for CuNCs and α-syn, respectively. Incubate the solution continuously in a 96-well plate at 37° C., monitor the fluorescence intensity by microplate reader every 10 minutes, and characterize the kinetics process of α-syn aggregation through the change of fluorescence intensity of ThT. […]

Another series deals with RGC-5 cells. Description: H2O2-induced glaucoma cell (RGC-5) model, CCK-8 cell viability. The series is classed as cell-based. As to conditions: 20 ppm of GSH and 100 μM of H2O2, 24 hours. How it is done: RGC-5 cells in logarithmic growth phase were diluted with complete medium (DMEM medium+10% FBS+1% penicillin-streptomycin) into a cell suspension with a density of 5×10^4/mL, inoculated with 100 μL per well in 96-well plates. The cells were cultured at 37° C. in a 5% CO2 incubator. After the cells were attached, the original culture solution was discarded, and 50 μL of different concentrations of CuNCs prepared from maintenance medium (DMEM medium+2% FBS+1% penicillin-streptomycin) were added to different wells. The final concentrations were 0.5, 5 and 20 ppm respectively (i.e. groups 5, 6, 7 respectively in FIG. 19). After pretreatment for 2 h, about 50 μL of H2O2 (final concentration of 105 μM) was added. The cells were incubated for 24 h, and 10% CCK-8 was added to each well for 4 h. The absorbance values of the respective wells were measured at the wavelength of 450 nm to evaluate the protection effect of CuNCs against H2O2-induced damages. In the above experiments, provided were a blank control group in which cells were not treated, a model control group in which cells were treated with 105 μM H2O2, a CuNCs control group in which 100 ppm of CuNCs were added but no H2O2 was added, and a ligand control group in which 20 ppm ligand and 105 μM H2O2 were added (i.e. groups 1, 2, 3, 4 respectively in FIG. 19).

SMILES strings stand for the structures.

Description for SH-sy5y cells: 1) Take SH-sy5y cells in the logarithmic growth phase. Dilute them with complete medium to form a cell suspension with a cell density of 5×10^4/mL. Plate 200 μl of the cell suspension into each well of a 96-well plate and cultivate in an environment of 37° C. and 5% CO2 in an incubator. The sample is added after the cells are attached.
2) Add 100 μL of ligand-modified CuNCs samples or ligand-modified copper nanoparticles samples with different particle sizes, which are prepared using maintenance medium to make the final concentration being 0.1 ppm, 1 ppm, 5 ppm, 10 ppm and 20 ppm, respectively. After 2 hours of pretreatment with ligand-modified CuNCs, the different groups of cells were added with MPP^+ (final concentration is 1 mM). […] Then the cells were cultured at 37° C. for 24 h. After centrifugation to remove the culture medium, 100 μL maintenance medium containing 10% CCK-8 were added to each well, and then incubate for 4 h. The absorbance of each well was then measured at 450 nm. The absorbance could reflect the pre-protective and curative effects of ligand-modified CuNCs against MPP^+ lesion.

With `N[C@@H](CCC(=O)N[C@@H](CS)C(=O)NCC(=O)O)C(=O)O` [GSH, L-glutathione], the “cell viability, ligand control group” value in the series with SH-sy5y cells is listed as 56.9±3.4%; in the series with RGC-5 cells, 56.5±5.9%. In addition, the “α-syn aggregation and fibrosis (ThT fluorescence intensity)” value on α-syn is recorded as “does not have an obvious effect”.
